# Assay results reported in EP0768085A1, “ANTIBACTERIAL AGENT” (DAIICHI PHARMACEUTICAL CO., LTD., priority 1994, dated 1996).
# Like-named read-outs stand apart in the source and are kept apart here.
# Legend:
# [1] = in vivo; details: mouse, oral administration, single dose, suspended in aqueous 0.5% CMC solution, male mice, observed for 14 days
# Method: Acute toxicity (LD50) of a ketonitrile derivative of the present invention (Compound No. 4) was tested using male mice (Slc:ddY, 5 weeks old). To groups of each 5 mice, the compounds suspended in aqueous 0.5% CMC solution were forcibly dosed orally at a single time so that the final dosages of 707, 1,000, 1,414, and 2,000 mg/kg were attained. […] As a result, LD50 value under conditions of oral administration was estimated to be higher than 2,000 mg/kg. Thus, the compound was confirmed to be quite non-toxic.
# To groups of each 5 mice, the compounds suspended in aqueous 0.5% CMC solution were forcibly dosed orally at a single time so that the final dosages of 500, 1,000, 1,500, and 2,000 mg/kg were attained. […] As a result, the LD50 value was estimated to be higher than 2,000 mg/kg. Thus, the compounds were confirmed to be quite non-toxic.
# [2] = test system: Staphylococcus aureus 209-P; experiment: Antibacterial activity (IC), Mueller-Hinton broth, 96-well microplate (Example 4, Table 39); assay type: cell-based; details: 37°C, 18 hours
# Summary of the method: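 S. aureus 209-P at 10^6 CFU/ml in Mueller-Hinton broth, compound (DMSO/water) at final 100, 10 and 1 µg/ml, 18 h at 37°C. Growth inhibition scored by turbidity; IC reported as ≤100, ≤10 or ≤1 µg/ml bands.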
# [3] = test system: Staphylococcus aureus TI-1; experiment: Antibacterial activity (IC), broth microplate as in Example 4 (Example 5, Table 40); assay type: cell-based; details: TI1, 18 h
# Summary of the method: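 S. aureus TI-1 at 10^6 CFU/ml in Mueller-Hinton broth exposed to compound at final 100, 10 and 1 µg/ml (DMSO/water stock), 37 °C for 18 h. Growth inhibition judged by turbidity; IC reported as ≤100, ≤10 or ≤1 µg/ml bands.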
# [4] = test system: Pasteurella multocida (Kobe-6); experiment: Antibacterial activity (IC), broth microplate as in Example 4 (Example 6, Table 41); assay type: cell-based; details: 18 h, origin pig
# Method: A suitable amount of a sample was dissolved in dimethylsulfoxide (DMSO), and the resultant solution was diluted with the same amount of sterilized distilled water to prepare a bulk sample of 1,000 µg/ml. Mueller-Hinton broth (product of DIFCO) was dispensed into each well of 96-well microplate. Thereafter, the bulk specimen was added to the first well of a row, and successively diluted (10-fold each time) with sterilized distilled water. Separately, a bacterial cell suspension for the test (Staphylococcus aureus 209-P) which had been cultured in the above-mentioned broth overnight at 37°C was inoculated to each well so that the final inoculation amount of 10^6 CFU/ml was attained. The final concentrations of the samples were 100, 10, and 1 µg/ml.
# The antibacterial action was evaluated by the inhibitory concentration (hereinafter abbreviated as IC) at which propagation of the bacteria cultured at 37°C for 18 hours was inhibited. Inhibition was determined by the turbidity of the medium. The expressions "IC≤100", "≤10", and "≤1" indicate that MIC-equivalent values obtained at the succesive […] dilution of the sample are 100-10 µg/ml, 10-1 µg/ml, and not more than 1 µg/ml, respectively. […] (In the subsequent Examples, the same rule applies correspondingly.) Table 39
# In a manner similar to that described in Example 4, antibacterial activity of the invention compound was determined. The bacterium used for the test was Pasteurella Kobe-6 (origin: pig; Pasteurella multocida).
# [5] = test system: Pasteurella from cattle; experiment: MIC by agar plate dilution method (Example 9, Table 44); assay type: cell-based; details: 18 h
# Method: (§1) Through use of a ketonitrile derivative of the present invention (Compound No. 4) as a sample, minimum inhibitory concentrations (MIC) of Staphylococcus aureus and Pasteurella from cattle were determined by an agar plate dilution method in accordance with the standard procedure authorized by Japan Chemotherapy Association ["Chemotherapy", 29, 76-79, 1981, under the heading "Revised Measurement of Minimum Inhibitory Concentration (MIC)"]. The samples were dissolved in dimethylsulfoxide and diluted with the same amount of sterilized distilled water to prepare a bulk sample liquid of 1,000 µg/ml. The bulk was diluted into a series of 2-fold dilutions using sterilized distilled water.
# (§2) Separately, the bacterial cell suspensions for the test shown in Table 18 were cultured in Mueller-Hinton broth (DIFCO) at 37°C for 18-20 hours in advance. They were controlled to have a bacterial amount of 10^6 CFU/ml by use of Mueller-Hinton broth. The thus-controlled liquids were inoculated to a Muller-Hinton agar plate containing the sample, followed by culturing at 37°C for 18 hours. The concentration at which bacterial growth was no longer observed was taken as the MIC.
# [6] = test system: Staphylococcus aureus; experiment: as above; assay type: cell-based; details: 18 h
# Method: as §1, §2
# [7] = test system: various bacterial strains; experiment: MIC by microliquid dilution method (Example 10, Table 45); assay type: cell-based
# Method: Through use of a ketonitrile derivative of the present invention (Compound No. 4) as a sample, minimum inhibitory concentrations (MIC) of respective bacterial strains were determined by a microliquid dilution method in accordance with the standard procedure authorized by Japan Chemotherapy Association ["Chemotherapy", 29, 76-79, 1981, under the heading "Revised Measurement of Minimum Inhibitory Concentration (MIC)"]. The samples were dissolved in dimethylsulfoxide and diluted with the same amount of sterilized distilled water to prepare a bulk sample liquid of 1,000 µg/ml. The bulk sample was cultured in Mueller-Hinton broth at 37°C for 18 hours.
smiles,measurement,setting,value
"CC(Oc1ccc(Oc2ncc(C(F)(F)F)cc2Cl)cc1)C(=O)C(C#N)c1ccc(Cl)c(Cl)c1 (stereo not drawn) [Compound No. 4, 4-[4-(3-chloro-5-trifluoromethyl-2-pyridyloxy)phenoxy]-2-(3,4-dichlorophenyl)-3-oxopentanonitrile]",LD50 at 336 h,[1],> 2000 mg/kg
same,MIC,[2],≤ 1 µg/mL
same,MIC,[3],≤ 1 µg/mL
same,MIC,[4],10 to 100 µg/mL
same,MIC,"[5]; Pasteurella Multosida 1F-17, origin Cattle",1.56 µg/mL
same,MIC,"[5]; Pasteurella haemolytica 1F-15, origin Cattle",6.25 µg/mL
same,MIC,"[6]; 209P, Staphylococcus aureus 209P, origin Standard strain",1.56 µg/mL
same,MIC,"[6]; Staphylococcus aureus 1SS1, origin Chicken",3.13 µg/mL
same,MIC,"[6]; Staphylococcus aureus 3-2, origin Pig",3.13 µg/mL
same,MIC,"[6]; Staphylococcus aureus TI-1, origin Cattle",6.25 µg/mL
same,MIC,"[7]; 18 h, Staphylococcus aureus SMITH, read-out: MIC",3.13 µg/mL
same,MIC,"[7]; 18 h, Staphylococcus epidermis 56556, read-out: MIC",6.25 µg/mL
same,MIC,"[7]; 18 h, Streptococcus mitis 11D 685, read-out: MIC",12.5 µg/mL
same,MIC,"[7]; 18 h, Streptococcus pyogenes G-36, read-out: MIC",6.25 µg/mL
same,MIC,"[7]; ATCC6633, 18 h, Bacillus subtilis ATCC 6633, read-out: MIC",3.13 µg/mL
same,MIC,"[7]; ATCC19433, 18 h, Enterococcus faecalis ATCC 19433, read-out: MIC",6.25 µg/mL
same,MIC,[7]; Staphylococcus aureus M5-1 (Methicillin-resistant Staphylococcus aureus),3.13 µg/mL
same,MIC,[7]; Staphylococcus aureus M5-2 (Methicillin-resistant Staphylococcus aureus),3.13 µg/mL
